Results taken from article PMC5515887, “Ruthenium-conjugated chrysin analogues modulate platelet activity, thrombus formation and haemostasis with enhanced efficacy” (Scientific Reports, 2017).

What was measured:
human washed platelets = assay: CRP-XL-induced aggregation of human washed platelets (optical aggregometry); format: cell-based; details: CRP-XL 0.5 μg/mL
Procedure: To determine the effects of chrysin and thio-chrysin and their Ru-complexes in the modulation of platelet activation, aggregation assays were performed using cross-linked collagen-related peptide (CRP-XL) as a platelet agonist, by optical aggregometry. Firstly, to determine the effects of chrysin and its derivatives on isolated platelets, aggregation assays were performed using human washed platelets (devoid of plasma proteins and other blood cells).
Figure 2 Effects of chrysin and its derivatives in washed platelet aggregation. […] The aggregation traces shown are representative of three separate experiments.
(§1) The preparation of human platelets and aggregation assays were performed using standard protocols as described by us previously, [16]. Briefly, human blood was collected in 3.2% citrate containing vacutainers via venepuncture from healthy, aspirin-free individuals with informed consent in accordance with the methods approved by the University of Reading Research Ethics Committee. All methods were performed in accordance with the relevant institutional and national guidelines and regulations. Blood samples were centrifuged at 102 g for 20 minutes at room temperature to separate the PRP, which was used in aggregation, flow cytometry, static platelet adhesion, calcium mobilisation and clot retraction assays. For the preparation of washed platelets, 50 mL of blood samples were mixed with 7.5 mL of ACD (acid citrate dextrose) (20 g/L glucose, 25 g/L sodium citrate and 15 g/L citric acid) and centrifuged at 102 g for 20 minutes at room temperature. The PRP was carefully aspirated from the other blood cells prior to mixing with 3 mL of ACD and centrifuging at 1413 g for 10 minutes at room temperature. The resulting platelet pellet was re-suspended in modified Tyrodes-HEPES buffer (2.9 mM KCl, 134 mM NaCl, 0.34 mM Na2HPO4.12H20, 1 mM MgCl2, 12 mM NaHCO3, 20 mM HEPES, pH 7.3) and washed by centrifuging again at 1413 g for 10 minutes. The resulting platelet pellet was suspended in modified Tyrodes-HEPES buffer at a density of 4 × 10^8 cells/mL for aggregation, dense granule secretion, cellular uptake studies and calcium mobilisation assays. Human platelet aggregation was performed using CRP-XL as an agonist in the presence and absence of various concentrations of chrysin and its synthetic derivatives by optical aggregometry. A vehicle control [DMSO at a concentration of less than 0.1% (v/v)] was included in all the experiments. Dense granule secretion in platelets was determined by measuring the ATP release using the luciferin-luciferase reagent by lumi-aggregometry (Chrono-Log, USA). SDS-PAGE and immunoblotting analysis were performed using standard protocols. The rabbit anti-phospho-specific antibodies for human AKT pS473, FAK pY397 and Src pY527 were obtained from Abcam, UK and rabbit anti-human 14-3-3ζ (Santa Cruz Biotechnology, USA) was used to detect protein 14-3-3ζ as a loading control in immunoblot assays. The Cy5-conjugated goat anti-rabbit IgG (Life technologies, UK) was used as the secondary antibody.

[1] = tested on: outside-in signalling by integrin αIIbβ3; assay: Clot retraction assay (outside-in signalling by integrin αIIbβ3); format: cell-based, human; details: PRP; 50 μM compound; 1 U/mL thrombin; three hours
Procedure: R represents ‘resting’ platelets.
Following fibrinogen binding, integrin αIIbβ3 triggers signalling into the platelets in order to induce clot retraction and promote wound healing. This also represents a late downstream signalling event in the platelet activation process. To determine whether chrysin and its derivatives affect outside-in signalling by integrin αIIbβ3, a clot retraction assay was performed. […] At three hours, the clot obtained with the vehicle control [0.1% (v/v) DMSO] retracted to around 50 mg.
PRP (200 µL) was mixed with 5 µL of red blood cells and the final volume was made to 950 µL with modified Tyrodes-HEPES buffer in the presence and absence of various concentrations of chrysin or its synthetic derivatives. Clot formation was initiated by adding 1 U/mL (50 µL) thrombin. A glass capillary was placed in middle of the tube and the clot retraction was observed over a period of 3 hours at room temperature. Clot weight was measured as a marker for clot retraction after 3 hours.

AKT = assay: Immunoblot of AKT phosphorylation at S473 in CRP-XL activated platelets; format: cell-based, human; details: washed platelets, CRP-XL 0.5 μg/mL
Source text: (§2) The calcium traces (Ai and Bi) shown are representative of three separate experiments. […] The platelets were lysed and used for immunoblot analysis to detect the level of AKT phosphorylation at residue S473, FAK phosphorylation at Y397 and phosphorylation of Src at Y527. The level of 14-3-3ζ protein was detected as a loading control. The cropped images of the blots shown here are representative of three separate experiments. The uncropped full length blots are presented in Supplementary Information (Figure S8).
(§3) Calcium mobilisation is associated with phosphoinositide 3-kinase (PI3K) signalling in platelets. Protein kinase B (AKT) is a downstream effector of PI3K and a key marker for the PI3K/AKT signalling pathway. […]
(§4) The preparation of human platelets and aggregation assays were performed using standard protocols as described by us previously, [16]. Briefly, human blood was collected in 3.2% citrate containing vacutainers via venepuncture from healthy, aspirin-free individuals with informed consent in accordance with the methods approved by the University of Reading Research Ethics Committee. […] Dense granule secretion in platelets was determined by measuring the ATP release using the luciferin-luciferase reagent by lumi-aggregometry (Chrono-Log, USA). […]

FAK = assay: Immunoblot of FAK phosphorylation at Y397 in CRP-XL activated platelets; format: cell-based, human; details: washed platelets, CRP-XL 0.5 μg/mL
Source text: as §2, §3, §4

[2] = tested on: platelet adhesion (integrins αIIbβ3 and α2β1); assay: Static platelet adhesion assay on collagen, CRP-XL and fibrinogen; format: cell-based, human; details: PRP; static conditions; in the presence and absence of integrilin (4 µM)
Procedure: Integrins αIIbβ3 and α2β1 play critical roles in platelet adhesion to different matrix proteins such as fibrinogen and collagen, respectively.
Micro titre plates (96 well) were coated with 1 μg/100 μL/well of fibrinogen, collagen or CRP-XL followed by incubation at 4 °C for overnight. Following the removal of unbound proteins/peptide, the wells were blocked with 1% bovine serum albumin in modified Tyrodes-HEPES buffer for 1 hour. The plates were then washed three times with modified Tyrode’s-HEPES buffer prior to adding human PRP (1 × 10^8 cells/mL, 50 μL/well) and incubated at room temperature for 1 hour. Non-adhered platelets were discarded and then the wells were washed with modified Tyrodes-HEPES buffer. Citrate lysis buffer (100 μL/well) was added and incubated for 1 hour at room temperature. Finally, 100 μL of 2 M NaOH was added to all the wells to stop the reaction and the absorbance was measured at 405 nm using a Fluostar Optima spectrofluorimeter (BMG Labtech, Germany). Experiments were performed both in the absence and presence of integrilin (4 μM) (an antagonist for integrin αIIbβ3).

[3] = tested on: human platelet-rich plasma (PRP); assay: CRP-XL-induced platelet aggregation in human platelet-rich plasma (optical aggregometry); format: cell-based
Procedure: Therefore, to determine the effects of various concentrations of chrysin and its derivatives in the presence of plasma proteins, aggregation assays were performed using human platelet-rich plasma (PRP) and 0.5 μg/mL CRP-XL.
Figure 3 Impact of chrysin and its derivatives on platelet activation in platelet-rich plasma. […] The platelet aggregation was monitored for 5 minutes. The traces shown are representative of three separate experiments.
as §1

Row | Molecule | reduction in CRP-XL-induced platelet aggregation (human washed platelets; 6.25 μM compound) | effect on CRP-XL-induced platelet aggregation in washed platelets (human washed platelets) | effect on clot retraction [1] | effect on AKT phosphorylation at S473 (AKT) | effect on FAK phosphorylation at Y397 (FAK) | effect on platelet adhesion to collagen, CRP-XL or fibrinogen [2] | effect on platelet aggregation at lower concentrations ([3]; PRP, 6.25 μM and 12.5 μM compound, CRP-XL 0.5 μg/mL) | reduction in platelet aggregation ([3]; PRP, 100 μM compound, CRP-XL 0.5 μg/mL) | effect on platelet aggregation in PRP ([3]; PRP, CRP-XL 0.5 μg/mL) | greater inhibition of platelet function and thrombus formation in vitro than chrysin ([3]; physiologically relevant conditions such as platelet-rich plasma and whole blood) [fold]
1 | O=c1cc(-c2ccccc2)oc2cc(O)cc(O)c12 [chrysin] | approximately 80% | inhibited CRP-XL (0.5 μg/mL)-induced aggregation in washed platelets in a concentration-dependent manner | did not show significant effects | inhibited their phosphorylation in a concentration-dependent manner | inhibited their phosphorylation in a concentration-dependent manner | did not affect platelet adhesion | did not exhibit significant effects | around 40% | – | –
2 | chlorido [(5-oxo-κO)-7-hydroxy-(2-phenyl)-4H-chromen-4-thionato-κS] (η6-p-cymene)ruthenium(II) [Ru-thio-chrysin] | – | inhibited CRP-XL-induced platelet aggregation in a concentration-dependent manner | superior effects in comparison to native chrysin | inhibited their phosphorylation in a concentration-dependent manner | inhibited their phosphorylation in a concentration-dependent manner | did not affect platelet adhesion | – | – | significant effect at lower concentrations including 6.25 μM | 4
